How the values were obtained:
[1] = tested on: guinea-pigs intoxicated with verapamil; experiment: Survival of anesthetized guinea-pigs intoxicated with verapamil (acute heart failure); type: in vivo, guinea-pig (Dunkin Hartley); conditions: verapamil 2.0 mg/kg i.v.; 60 min follow-up; low doses: levosimendan 8.4 μg/kg bolus + 0.14 μg/kg/min, CaCl2 10 mg/kg bolus + 0.5 mg/kg/min; vs saline control
Method: At zero time, the intoxication was started with an intravenous bolus injection of verapamil and immediately continued with a 4-min infusion. The total dose of verapamil was 2.0 mg/kg. Control animals were treated with saline.
(§1) 120 spontaneously breathing guinea-pigs (Dunkin Hartley, weighing 470±5 grams, mean±SEM) were anesthetised with isoflurane. The left ventricular and brachial arterial pressures were measured. The carotid artery was surgically exposed in order to introduce a pressure transducer into the left ventricle. A fluid-filled polyethylene cannula was inserted into the brachial artery and connected to another pressure transducer for recording of arterial pressure. The pressure signals were amplified, digitized and sampled.

[2] = tested on: guinea-pigs intoxicated with diltiazem; experiment: Survival of anesthetized guinea-pigs intoxicated with diltiazem (acute heart failure); type: in vivo, guinea-pig (Dunkin Hartley); conditions: diltiazem 4.5 mg/kg i.v.
Method: At zero time, the intoxication was started with an intravenous bolus injection of diltiazem and immediately continued with a 4-min infusion. The total dose of diltiazem was 4.5 mg/kg. Control animals were treated with saline. All treatments were started one minute after the end of the diltiazem infusion. *p<0.05, **p<0.01, ***p<0.001 vs. control (Kaplan-Meier survival analysis followed by the logrank test).
as §1

Compound | effect on survival (in words) [1] | survival rate ([2]; 60 minutes after intoxication began, levosimendan 8.4 μg/kg bolus + 0.14 μg/kg/min, control 13%) [%] | effect on survival (in words) ([2]; 60 min follow-up, low doses: levosimendan 8.4 μg/kg bolus + 0.14 μg/kg/min, CaCl2 10 mg/kg bolus + 0.5 mg/kg/min, vs saline control)
CC1CC(=O)NN=C1c1ccc(NN=C(C#N)C#N)cc1 (single isomer, unassigned; (-)) [levosimendan, (−)-enantiomer of [[4-(1,4,5,6-tetrahydro-4-methyl-6-oxo-3-pyridazinyl)phenyl]hydrazono]propanedinitrile] | did not improve the survival | 63 | –
[Ca+2].[Cl-].[Cl-] [calcium chloride] | did not affect the survival rate | – | did not affect the survival rate
